The target in data set [1] is Signal transducer and activator of transcription 3 (Homo sapiens) (UniProt P40763). In words: Binding affinity to STAT3 in human A549 cells assessed as STAT3 stabilization incubated for 1 hr by CETSA. The data set is classed as cell-based.
Data set [2] in a line: Potency index, ratio of NIF IC50 to test compound IC50 for antiproliferative activity against […] cells. The format is functional, NIH3T3.
The test system of data set [3] is NIH3T3. In words: Inhibition of TGF-beta1 induced NIH-3T3 cells activation assessed as effect on collagen I at 6 uM preincubated with TGF-beta1 for 1 hr followed by compound addition and measured after 24 hrs by DAPI staining based fluorescence microscopic analysis. As to conditions: Mus musculus. The format is functional, cell-based.
Data set [4] deals with A549. Nature of the data set: Inhibition of TGF-beta1 induced epithelial-mesenchymal transition in human A549 cells assessed as reduction in E-cadherin protein level at 6 uM preincubated with TGF-beta1 for 1 hr followed by compound addition and measured after 24 hrs by immunofluorescence staining based analysis. The data set is classed as functional, cell-based.
Data set [5] can be described thus: AUC(0 to infinity) in Sprague-Dawley rat at 2 mg/kg, iv measured upto 24 hrs. Set-up: time < 24 hrs, dose 2 mg/kg, route iv. Conditions: in vivo. The format is ADME, organism-based.
The subject of data set [6] is Mus musculus. In words: Anti-fibrotic activity in bleomycin-induced C57BL/6 mouse model of pulmonary fibrosis assessed as mouse survival rate at 60 mg/kg, po pretreated with bleomycin for 1 day followed by compound addition once daily for 22 days. The data set is classed as functional, organism-based. Conditions: time 22.0 day.
Data set [7] deals with Mus musculus. Nature of the data set: Anti-fibrotic activity in bleomycin-induced C57BL/6 mouse model of pulmonary fibrosis assessed as decrease in collagen level by measuring hydroxyproline level at 30 to 60 mg/kg, po pretreated with bleomycin for 1 day followed by compound addition once daily for 21 days. The data set is classed as functional, organism-based. Conditions: dose 30-60 mg/kg, time 21.0 day.

For data set [8], the system named is Mus musculus. Nature of the data set: Anti-fibrotic activity in bleomycin-induced C57BL/6 mouse model of pulmonary fibrosis assessed as reduction in collagen deposition at 30 to 60 mg/kg, po pretreated with bleomycin for 1 day followed by compound addition once daily for 22 days by Masson't trichrome staining based analysis. Also noted: scale not given: the % may be the effect or the level left. Conditions: dose 30-60 mg/kg, time 22 day. The data set is classed as functional.

Data set [9] concerns Mus musculus. In words: Anti-fibrotic activity in bleomycin-induced C57BL/6 mouse model of pulmonary fibrosis assessed as […] in E-Cadherin expression level at 30 to 60 mg/kg, po pretreated with bleomycin for 1 day followed by compound addition once daily for 22 days by Western blot analysis. The format is functional, organism-based. As to conditions: dose 30-60 mg/kg, time 22.0 day. A general note: A western blot detects proteins with antibodies after separation by electrophoresis.

In data set [10] the test system is Mus musculus. In words: Anti-fibrotic activity in bleomycin-induced C57BL/6 mouse model of pulmonary fibrosis assessed as reduction in p-STAT3 level at 30 to 60 mg/kg, po pretreated with bleomycin for 1 day followed by compound addition once daily for 22 days by immunohistochemical analysis. The data set is classed as functional, organism-based. Conditions: dose 30-60 mg/kg, time 22.0 day.

Data set [11] in a line: Toxicity in C57BL/6 mouse assessed as effect on liver tissue at 30 to 60 mg/kg, po administered once daily. The format is organism-based. As to conditions: in vivo, dose 30-60 mg/kg.
Data set [12] concerns Mus musculus. Nature of the data set: Anti-fibrotic activity in bleomycin-induced C57BL/6 mouse model of pulmonary fibrosis assessed as reduction in ratio of dendritic cells at 60 mg/kg, po administered once daily by flow cytometry analysis (reference value: 20.21%). The format is functional. Set-up: scale not given: the % may be the effect or the level left. In general terms: Flow cytometry measures light scatter and fluorescence of single cells or particles in a stream.

The subject of data set [13] is Mus musculus. Nature of the data set: Anti-fibrotic activity in bleomycin-induced C57BL/6 mouse model of pulmonary fibrosis assessed as reduction in ratio of CD69+CD4+ T cells at 60 mg/kg, po administered once daily by flow cytometry analysis (reference value: 9.05%). The data set is classed as functional, T-cell. Also noted: scale not given: the % may be the effect or the level left.

For data set [14], the system named is Mus musculus. In words: Anti-fibrotic activity in bleomycin-induced C57BL/6 mouse model of pulmonary fibrosis assessed as reduction in ratio of macrophage cells at 30 mg/kg, po administered once daily by flow cytometry analysis (reference value: 21.51%). The format is functional. Also noted: scale not given: the % may be the effect or the level left.
The subject of data set [15] is Mus musculus. Nature of the data set: Anti-fibrotic activity in bleomycin-induced C57BL/6 mouse model of pulmonary fibrosis assessed as reduction in ratio of macrophage cells at 60 mg/kg, po administered once daily by flow cytometry analysis (reference value: 21.51%). The format is functional. Set-up: scale not given: the % may be the effect or the level left.
Data set [16] has as its system Mus musculus. Nature of the data set: Anti-fibrotic activity in bleomycin-induced C57BL/6 mouse model of pulmonary fibrosis assessed as reduction in pathological lesions at 60 mg/kg, po pretreated with bleomycin followed by compound addition once daily on day 7 to 14 by H and E staining based analysis. As to conditions: time 7.0 day. The data set is classed as functional, organism-based.

Data set [17] relates to Mus musculus. Nature of the data set: Anti-fibrotic activity in bleomycin-induced C57BL/6 mouse model of pulmonary fibrosis assessed as reduction in alpha-SMA level at 60 mg/kg, po pretreated with bleomycin followed by compound addition once daily on day 7 to 14. The format is functional, organism-based. Conditions: time 7.0 day.
Data set [18] deals with Mus musculus. In words: Anti-fibrotic activity in bleomycin-induced C57BL/6 mouse model of pulmonary fibrosis assessed as reduction in collagen I level at 60 mg/kg, po pretreated with bleomycin followed by compound addition once daily on day 7 to 14. The data set is classed as functional, organism-based. Conditions: time 7.0 day.
Data set [19] concerns Mus musculus. Nature of the data set: Anti-fibrotic activity in bleomycin-induced C57BL/6 mouse model of pulmonary fibrosis assessed as increase in E-cadherin level at 60 mg/kg, po pretreated with bleomycin followed by compound addition once daily on day 7 to 14. The data set is classed as functional, organism-based. Conditions: time 7.0 day.
Data set [20] deals with Mus musculus. Nature of the data set: Anti-fibrotic activity in bleomycin-induced C57BL/6 mouse model of pulmonary fibrosis assessed as reduction in p-STAT3 level at 60 mg/kg, po pretreated with bleomycin followed by compound addition once daily on day 7 to 14. Conditions: time 7.0 day. The data set is classed as functional, organism-based.

We go through 1 compound from ChEMBL document CHEMBL5335769, “Design, synthesis and biological evaluation of novel diarylacylhydrazones derivatives for the efficient treatment of idiopathic pulmonary fibrosis” (Eur J Med Chem, 2023).

Broadly, the AUC(0-inf) is the area under the concentration-time curve extrapolated to infinity.

Activity calls are given as the source filed them. No cut-off for these calls is given here.

Chain of Signal transducer and activator of transcription 3 (Homo sapiens) (P40763 whole entry): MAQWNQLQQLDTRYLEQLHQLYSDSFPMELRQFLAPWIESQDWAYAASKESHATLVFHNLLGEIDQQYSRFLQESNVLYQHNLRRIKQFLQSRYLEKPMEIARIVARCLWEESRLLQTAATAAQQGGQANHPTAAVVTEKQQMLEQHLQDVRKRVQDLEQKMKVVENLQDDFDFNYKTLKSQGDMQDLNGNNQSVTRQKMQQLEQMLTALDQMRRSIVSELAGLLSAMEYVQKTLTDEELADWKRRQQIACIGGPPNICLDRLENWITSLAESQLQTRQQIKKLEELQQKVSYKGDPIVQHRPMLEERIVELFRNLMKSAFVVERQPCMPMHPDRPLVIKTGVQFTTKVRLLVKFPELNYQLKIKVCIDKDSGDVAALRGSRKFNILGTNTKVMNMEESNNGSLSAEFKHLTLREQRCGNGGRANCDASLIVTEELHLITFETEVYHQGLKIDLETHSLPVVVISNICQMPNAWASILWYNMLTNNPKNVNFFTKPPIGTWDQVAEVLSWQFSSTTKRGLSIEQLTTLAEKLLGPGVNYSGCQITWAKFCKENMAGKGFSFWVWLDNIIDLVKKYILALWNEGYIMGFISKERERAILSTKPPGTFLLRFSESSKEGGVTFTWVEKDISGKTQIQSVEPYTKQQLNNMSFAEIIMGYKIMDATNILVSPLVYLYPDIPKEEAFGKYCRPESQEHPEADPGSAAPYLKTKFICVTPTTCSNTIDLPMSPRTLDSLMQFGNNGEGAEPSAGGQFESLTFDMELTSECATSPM

For `O=C(N/N=C/c1ccc([N+](=O)[O-])s1)c1ccc(OCCCCCCN2CCCCC2)cc1`, the result in data set [1], in data set [6], in data set [7], in data set [9], in [10] and in data set [16] was Active. Besides, the outcome in data set [17], in [18], in data set [19] and in data set [20] was Active. Besides, the “Ratio IC50” value in data set [2] amounted to 5. Further, the inhibition result in [3] and in [4] was “Active” each time. The AUC(0-inf) in data set [5] is 371 ng·h/mL. Besides, the Activity in [8] was 100%; in [11], “Non-Toxic”; in data set [12], 11.71%; in data set [13], 3.06%; in data set [14], 4.79%; in [15], 3.45%.
